Measured values from paper PMC6556873, “Rapid Covalent-Probe Discovery by Electrophile-Fragment Screening” (Journal of the American Chemical Society, 2019).
Read-outs that look alike come from different tables or passages of the source.

Assays:
in vitro [1] = assay: in vitro; set-up: species or system CCD841, HEK293; conditions: human, hb2 cells, read-out: HB-2 Cells Viability (%)
BSA = biological target: T1, BSA (Bos taurus, UniProt P02769); set-up: Intact protein LC/MS covalent labelling, fragments in pools of five, 200 uM each, 4 °C; conditions: 24 h, 4 °C, pool of five; 200 µM; covalent
T1 construct: gene ALB
T1 sequence (P02769 whole entry, the tested form may be a part): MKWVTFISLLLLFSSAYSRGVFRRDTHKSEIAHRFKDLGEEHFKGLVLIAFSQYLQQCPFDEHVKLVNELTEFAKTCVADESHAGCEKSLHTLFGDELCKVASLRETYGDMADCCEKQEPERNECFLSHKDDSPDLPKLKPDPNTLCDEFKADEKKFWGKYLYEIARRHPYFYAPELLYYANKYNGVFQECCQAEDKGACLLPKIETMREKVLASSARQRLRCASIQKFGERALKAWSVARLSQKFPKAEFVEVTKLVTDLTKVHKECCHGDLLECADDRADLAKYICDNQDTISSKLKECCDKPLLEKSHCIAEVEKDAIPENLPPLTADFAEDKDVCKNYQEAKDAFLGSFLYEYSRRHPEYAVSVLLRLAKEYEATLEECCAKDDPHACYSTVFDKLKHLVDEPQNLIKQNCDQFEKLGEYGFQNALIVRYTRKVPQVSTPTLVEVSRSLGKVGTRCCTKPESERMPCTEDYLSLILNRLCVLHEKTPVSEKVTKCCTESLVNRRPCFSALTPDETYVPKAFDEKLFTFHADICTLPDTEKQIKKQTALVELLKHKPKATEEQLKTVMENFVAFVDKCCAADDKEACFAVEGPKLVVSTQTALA

OTUB2 (OTUB2A) = biological target: T2, OTUB2 (OTUB2A) (Homo sapiens, UniProt Q96DC9); set-up: Intact protein LC/MS covalent labelling, fragments in pools of five, 200 uM each, 4 °C; conditions: 24 h, 4 °C, pool of five; 200 µM; covalent
T2 construct: full length residues 1-234, E. coli BL21(DE3)-R3, His tag removed by TEV, construct 27312 Da
T2 sequence (Q96DC9 1-234): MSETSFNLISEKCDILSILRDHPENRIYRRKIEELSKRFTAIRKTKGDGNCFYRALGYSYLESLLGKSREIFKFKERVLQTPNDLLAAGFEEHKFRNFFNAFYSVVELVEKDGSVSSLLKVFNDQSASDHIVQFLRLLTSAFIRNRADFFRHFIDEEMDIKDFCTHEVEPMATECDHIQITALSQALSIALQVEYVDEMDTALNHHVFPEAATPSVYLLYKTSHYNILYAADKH

PCAF = biological target: T3, PCAF (Homo sapiens, UniProt Q92831); set-up: Intact protein LC/MS covalent labelling, fragments in pools of five, 200 uM each, 4 °C; conditions: 24 h, 4 °C, pool of five; 200 µM; covalent
T3 construct: gene KAT2B
T3 sequence (Q92831 whole entry, the tested form may be a part): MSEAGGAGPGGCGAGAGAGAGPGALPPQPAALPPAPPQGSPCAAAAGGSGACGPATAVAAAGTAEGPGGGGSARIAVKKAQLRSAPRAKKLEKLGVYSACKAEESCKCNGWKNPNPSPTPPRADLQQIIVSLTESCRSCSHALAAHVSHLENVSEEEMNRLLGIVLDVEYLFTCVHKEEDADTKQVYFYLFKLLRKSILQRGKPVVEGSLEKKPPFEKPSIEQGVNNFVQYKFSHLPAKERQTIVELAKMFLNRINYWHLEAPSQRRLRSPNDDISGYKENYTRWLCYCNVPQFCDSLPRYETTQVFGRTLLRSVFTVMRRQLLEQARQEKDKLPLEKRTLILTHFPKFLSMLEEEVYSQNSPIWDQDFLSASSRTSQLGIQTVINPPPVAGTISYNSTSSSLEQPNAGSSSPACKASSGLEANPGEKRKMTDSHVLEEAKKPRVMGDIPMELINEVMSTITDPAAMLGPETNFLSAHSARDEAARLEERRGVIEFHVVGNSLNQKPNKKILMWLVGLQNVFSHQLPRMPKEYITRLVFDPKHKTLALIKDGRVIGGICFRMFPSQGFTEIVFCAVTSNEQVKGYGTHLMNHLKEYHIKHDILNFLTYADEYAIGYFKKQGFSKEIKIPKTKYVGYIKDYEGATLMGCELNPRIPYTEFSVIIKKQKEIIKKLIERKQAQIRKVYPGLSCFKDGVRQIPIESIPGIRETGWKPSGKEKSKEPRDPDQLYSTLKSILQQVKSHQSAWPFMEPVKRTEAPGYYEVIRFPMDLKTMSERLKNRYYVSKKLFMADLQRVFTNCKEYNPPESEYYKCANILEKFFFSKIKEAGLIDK

NNMT (hNNMT) = biological target: T4, NNMT (hNNMT) (Homo sapiens, UniProt P40261); set-up: Intact protein LC/MS covalent labelling, fragments in pools of five, 200 uM each, 4 °C; conditions: 24 h, 4 °C, pool of five; 200 µM; covalent
T4 construct: wild type, N-terminal His6 tag kept (no cleavage described), E. coli, construct 31248 Da
T4 sequence (P40261 1-264): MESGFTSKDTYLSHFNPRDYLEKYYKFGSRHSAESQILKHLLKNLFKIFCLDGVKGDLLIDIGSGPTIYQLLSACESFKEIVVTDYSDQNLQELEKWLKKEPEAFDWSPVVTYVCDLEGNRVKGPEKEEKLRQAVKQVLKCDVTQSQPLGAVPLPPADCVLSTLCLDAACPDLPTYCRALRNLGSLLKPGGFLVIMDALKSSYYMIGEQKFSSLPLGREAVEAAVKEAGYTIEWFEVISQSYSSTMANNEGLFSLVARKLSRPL

NUDT7 = biological target: T5, NUDT7 (Homo sapiens, UniProt P0C024); set-up: Intact protein LC/MS covalent labelling, fragments in pools of five, 200 uM each, 4 °C; conditions: 24 h, 4 °C, pool of five; 200 µM; covalent
T5 construct: residues 14-235, E. coli, pNIC28-Bsa4, N-terminal His6 tag removed by TEV, construct 26672 Da
T5 sequence (P0C024 14-235): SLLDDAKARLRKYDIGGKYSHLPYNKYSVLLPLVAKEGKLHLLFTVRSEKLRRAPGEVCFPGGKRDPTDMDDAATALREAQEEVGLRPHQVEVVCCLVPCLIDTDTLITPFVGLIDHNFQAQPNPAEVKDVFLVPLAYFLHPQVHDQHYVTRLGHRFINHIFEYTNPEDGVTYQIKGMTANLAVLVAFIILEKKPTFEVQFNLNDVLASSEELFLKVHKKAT

in vitro [2] = assay: in vitro; set-up: species or system HB2, CCD841; conditions: human, hek293 cells
in vitro [3] = assay: in vitro; set-up: species or system HB2, HEK293; conditions: human, ccd841 cells

Row | Structure (SMILES) | viability at 48 h, 10 µM (in vitro [1]) | BSA (BSA) | OTUB2 (OTUB2 (OTUB2A)) | PCAF (PCAF) | NNMT (NNMT (hNNMT)) | NUDT7 (NUDT7) | viability at 48 h, 10 µM (in vitro [2]) | viability at 48 h, 10 µM (in vitro [3])
1 | O=C(CCl)NN1C(=O)NC2(CCCCC2)C1=O [PCM-0102424] | 95% | 0 | 0 | 0 | 0 | 0.06 | 103% | 94.7%
2 | CC(C)c1cccc(NC(=O)CCl)c1 [PCM-0102429] | 17.7% | 0 | 0.23 | 0 | 0.52 | 0.1 | 17.7% | 57.3%
3 | Cc1cc(CNC(=O)CCl)cc(C)c1O [PCM-0102431] | 85.7% | 0 | 0.64 | 0 | 0 | 0 | 84.6% | 96.3%
4 | O=C(CCl)N1Cc2ccccc2C(c2ccccc2)C1 (stereo not drawn) [PCM-0102432] | 38.2% | 0 | 0.17 | 0 | 0.65 | 0.33 | 20.6% | 12.4%
5 | C=CC(=O)N1CCC(n2ccc(C(F)(F)F)n2)CC1 [PCM-0102435] | 96.3% | 0 | 0 | 0 | 0 | 0 | 85.7% | 93.3%
6 | C=CC(=O)N1CC(S(=O)(=O)CC)C1 [PCM-0102442] | 94.8% | 0 | 0 | 0 | 0.14 | 0 | 77.7% | 100%
7 | COc1ccc(C(=O)NC(=O)CCl)cc1 [PCM-0102454] | 97.1% | 0 | 0 | 0 | 0.36 | 0 | 96.7% | 103%
8 | O=C(CCl)Nc1nc2c(s1)CCC2 [PCM-0102457] | 42.3% | 0 | 0 | 0 | 0.59 | 0.37 | 43.3% | 61%
9 | O=C(CCl)Nc1nnc(-c2ccccc2)o1 [PCM-0102458] | 97.2% | 0 | 0.08 | 0 | 0.14 | 0 | 104% | 98%
10 | C=CC(=O)N1CCC(C(=O)O)(c2ccccc2)CC1 [PCM-0102459] | 103% | 0 | 0 | 0 | 0 | 0 | 110% | 98.8%
11 | O=C(CCl)NC(=O)c1cccc([N+](=O)[O-])c1 [PCM-0102460] | 99.8% | 0 | 0 | 0 | 0.12 | 0 | 117% | 95.9%
12 | O=C(CCl)NC(=O)C1COc2ccccc2O1 (stereo not drawn) [PCM-0102462] | 103% | 0 | 0 | 0 | 0 | 0 | 99.1% | 102%
13 | O=C(CCl)NC(=O)c1ccccc1Br [PCM-0102464] | 104% | 0 | 0 | 0 | 0 | 0 | 107% | 113%
14 | C=CC(=O)N1CCC(CN)CC1.Cl [PCM-0102467] | 95.4% | 0 | 0 | 0 | 0 | 0 | 91% | 105%
15 | O=C(CCl)N=c1sccn1Cc1ccccc1 [PCM-0102469] | 42.3% | 0 | 0.11 | 0 | 0.25 | 0 | 7% | 5.2%
16 | N#CCN(C(=O)CCl)c1ccccc1 [PCM-0102471] | 43.7% | 0.18 | 0.19 | 0 | 0.25 | 0 | 16% | 24.4%
17 | C=CC(=O)N1CCC2(CCN(C)C2=O)CC1 [PCM-0102475] | 94.8% | 0 | 0 | 0 | 0 | 0 | 85.3% | 100%
18 | O=C(CCl)N1CCNCC1.O=C(O)C(F)(F)F [PCM-0102476] | 101% | 0 | 0 | 0 | 0 | 0 | 92.4% | 100%
19 | C=CC(=O)N1CCC(C(=O)Nc2cc(C)on2)CC1 [PCM-0102477] | 99.4% | 0 | 0 | 0 | 0 | 0 | 86.9% | 115%
20 | C=CC(=O)N1CCCC(n2nc(C)nc2C)C1 (stereo not drawn) [PCM-0102479] | 101% | 0 | 0 | 0 | 0 | 0 | 98.5% | 111%
21 | C=CC(=O)N(C)C1CCCc2nc(CC)sc21 (stereo not drawn) [PCM-0102483] | 98.1% | 0 | 0 | 0 | 0 | 0 | 97.3% | 103%
22 | C=CC(=O)N(C)C1CCCCNC1=O (stereo not drawn) [PCM-0102484] | 95.7% | 0 | 0.11 | 0 | 0 | 0 | 122% | 101%
23 | C=CC(=O)NC(C)C(=O)N1CCc2ccccc21 (stereo not drawn) [PCM-0102486] | 99.8% | 0 | 0 | 0 | 0 | 0 | 99% | 89.6%
24 | C=CC(=O)N1CCC(CN2C(=O)CNC2=O)C1 (stereo not drawn) [PCM-0102488] | 96.6% | 0 | 0 | 0 | 0 | 0 | 100% | 114%
25 | C=CC(=O)N1CCNC(=O)C1c1c(F)cccc1Cl (stereo not drawn) [PCM-0102490] | 98.5% | 0 | 0 | 0 | 0 | 0 | 104% | 95.5%
26 | N#CSc1ccc(NC(=O)CCl)c(Cl)c1 [PCM-0102506] | 20.6% | 0 | 0 | 0 | 0.38 | 0 | 51.9% | 33.4%
27 | C=CC(=O)N1CCCCC1C(=O)O (stereo not drawn) [PCM-0102507] | 101% | 0 | 0 | 0 | 0 | 0 | 95.6% | 109%
